One assay concerns K562. The experiment in a line: cells. The settings on record: Homo sapiens.
Assay [1] addresses Tyrosine-protein kinase ABL1 (Homo sapiens, UniProt P00519).
The species named for another assay is Homo sapiens. The experiment in a line: Effect on DNA damage in p210 transfected M07 cells. The class given is functional, cell-based.

Activity calls are given as the source filed them. The calls are words filed in the database; no cut-off is given here.

Tyrosine-protein kinase ABL1, sequence (P00519 whole entry): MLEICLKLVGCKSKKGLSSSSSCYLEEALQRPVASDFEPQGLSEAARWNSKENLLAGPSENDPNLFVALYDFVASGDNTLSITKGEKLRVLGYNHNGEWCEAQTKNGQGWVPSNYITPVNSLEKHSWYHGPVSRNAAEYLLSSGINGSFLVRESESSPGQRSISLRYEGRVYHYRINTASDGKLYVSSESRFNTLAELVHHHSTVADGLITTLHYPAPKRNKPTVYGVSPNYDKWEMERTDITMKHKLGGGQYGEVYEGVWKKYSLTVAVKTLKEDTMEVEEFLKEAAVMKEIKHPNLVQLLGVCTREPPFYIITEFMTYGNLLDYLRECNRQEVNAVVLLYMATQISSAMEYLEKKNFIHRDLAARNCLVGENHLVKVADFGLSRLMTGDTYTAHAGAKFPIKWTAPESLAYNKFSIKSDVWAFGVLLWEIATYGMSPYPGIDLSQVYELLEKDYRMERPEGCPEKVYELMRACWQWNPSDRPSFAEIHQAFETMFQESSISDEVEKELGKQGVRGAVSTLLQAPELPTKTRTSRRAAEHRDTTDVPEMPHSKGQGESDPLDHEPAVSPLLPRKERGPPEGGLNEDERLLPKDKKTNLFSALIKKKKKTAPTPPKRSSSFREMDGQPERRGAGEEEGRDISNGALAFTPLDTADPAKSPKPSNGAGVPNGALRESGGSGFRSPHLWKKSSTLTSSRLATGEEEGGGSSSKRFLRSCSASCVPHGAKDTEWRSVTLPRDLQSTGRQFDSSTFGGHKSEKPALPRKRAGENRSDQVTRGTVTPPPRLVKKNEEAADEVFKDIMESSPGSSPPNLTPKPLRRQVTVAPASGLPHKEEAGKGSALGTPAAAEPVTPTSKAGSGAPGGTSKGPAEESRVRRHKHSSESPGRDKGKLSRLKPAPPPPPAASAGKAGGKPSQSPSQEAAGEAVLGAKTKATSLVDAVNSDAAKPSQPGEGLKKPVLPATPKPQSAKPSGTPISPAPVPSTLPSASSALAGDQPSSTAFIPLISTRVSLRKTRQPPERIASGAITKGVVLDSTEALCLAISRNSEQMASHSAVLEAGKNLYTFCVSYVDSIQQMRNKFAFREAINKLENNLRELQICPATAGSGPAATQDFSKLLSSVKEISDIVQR
Description for K562: Cytotoxicity against K562 cells by MTT assay

The IC50 is the concentration that inhibits the measured activity by half. The low end stands for greater potency in that assay, the high end for weaker potency in that assay. As for `Cc1ccc(NC(=O)c2ccc(CN(CCCl)CCCl)cc2)cc1Nc1nccc(-c2cccnc2)n1`, the values for the IC50 (in the assay on K562; in assay [1]) were over 100000 nM and over 10000 nM, respectively.

With `Cc1ccc(NC(=O)c2ccc(CN(C)CCCl)cc2)cc1Nc1nccc(-c2cccnc2)n1`, it took 79700 nM to reach half-maximal inhibition in the assay with K562 (IC50). In the assay on K562, `Cc1ccc(NC(=O)c2ccc(N)c(C(F)(F)F)c2)cc1Nc1nccc(-c2cccnc2)n1` showed an IC50 of 316 nM. In the assay with K562, `CNN=Nc1ccc(C(=O)Nc2ccc(C)c(Nc3nccc(-c4cccnc4)n3)c2)cc1C(F)(F)F` had an IC50 of 113 nM. The outcome in the assay listed under Homo sapiens was Active.

Molecule `CNN=Nc1ccc(C(=O)Nc2ccc(C)c(Nc3nccc(-c4cccnc4)n3)c2)cc1Cl` had an IC50 in the assay with K562 of 9980 nM. The molecule `Cc1ccc(NC(=O)c2ccc(N)cc2)cc1Nc1nccc(-c2cccnc2)n1` showed an IC50 in assay [1] of over 10000 nM.

In turn, `Cc1ccc(NC(=O)c2ccc(N=NN(C)C)c(C(F)(F)F)c2)cc1Nc1nccc(-c2cccnc2)n1` came in with an IC50 in the assay on K562 of 52 nM. The same measure, in the same setting: next, `Cc1ccc(NC(=O)c2ccc(N=NN(C)CO)c(C(F)(F)F)c2)cc1Nc1nccc(-c2cccnc2)n1`: 187 nM. Take `Cc1ccc(NC(=O)c2ccc(N(CCCl)CCCl)cc2)cc1Nc1nccc(-c2cccnc2)n1`: the IC50 came out at 2460 nM in the assay with K562 and 220 nM in assay [1].

Source of the values: ChEMBL document CHEMBL1145434, “Optimization of novel combi-molecules: identification of balanced and mixed bcr-abl/DNA targeting properties” (Bioorg Med Chem Lett, 2007).
